Source: US11560372B2, “Heterocyclic compounds useful as modulators of acetylcholine receptors” (TAKEDA PHARMACEUTICAL COMPANY LIMITED, priority 2017, dated 2023)

Key:
[1] = Mouse PK test (cassette dosing); type: in vivo; conditions: male, ICR; for Tmax: mouse plasma, time to reach maximum plasma concentration, oral 1 mg/kg; for MRT / clearance: plasma, mouse, intravenous 0.1 mg/kg; for MRT: mean residence time; for clearance: total clearance, read-out: CL total (converted)
Protocol: As the mouse, 8-week-old male ICR mice (Japan SLC, Inc.) were used. They were fed on a solid commercially available diet (CE-2, CLEA Japan, Inc.) and allowed to freely ingest tap water as the drinking water. An intravenous administration solution for the mice was prepared by weighing a test compound, dissolving same in dimethylacetamide (DMA) (Wako Pure Chemical Industries, Ltd.), adding the same volume of 1,3-butanediol (Wako Pure Chemical Industries, Ltd.) and mixing by stirring to give a DMA:1,3-butanediol (1:1, v/v) solution. An oral administration solution was prepared by weighing a test compound, pulverizing same in an agate mortar, and gradually adding 0.5 w/v % aqueous methylcellulose solution to give a suspension. For intravenous administration, the solution was administered into femoral vein of the mice at 0.1 mg/mL/kg (salt converted to free form). For oral administration, the suspension was administered to the mice at 1 mg/5 mL/kg (salt converted to free form). The cassette dosing method was used for the both administration routes, and the test compound was administered in the following manner.
In the case of intravenous administration, blood samples were collected from the tail vein at 5, 10, 15, 30 min, 1, 2, 4, 8 hr after administration, an anticoagulation treatment with heparin sodium (Shimizu Pharmaceutical Co., Ltd.) was performed, and plasma was collected after centrifugation and subjected to the measurement of drug concentration. In the case of oral administration, blood samples were collected from the tail vein at 15, 30 min, 1, 2, 4, 8 hr after administration, an anticoagulation treatment with heparin sodium was performed, and plasma was collected after centrifugation and subjected to the measurement of drug concentration.
All drug concentrations were measured by LC-MS/MS analysis. For a pharmacokinetics test, the plasma (5 μL) was placed in a tube, acetonitrile (115 μL) containing internal standard solution was added and they were mixed on a vortex mixer. Thereafter, the mixture was centrifuged (5000 rpm, 5 min, 4° C.). The supernatant (100 μL) after centrifugation was added to 10 mmol/L ammonium formate (100 μL) added earlier and mixed therewith. This sample was injected to LC/MS/MS. […] MS/MS used was AB Sciex TQ5500-MPX (Applied Biosystems).
Tmax: time to reach maximum plasma concentration
iv: intravenous administration
CL total: total clearance

Male SD rats = assay: Rat defecation experiment; type: in vivo; conditions: mean±standard error
Protocol: Rat Defecation Experiment
Male SD rats (5-6 weeks old) were used after an acclimation period for about 1 week. A test drug (1 mg/kg, 3 mg/kg, or 10 mg/kg) was suspended in 0.5% methylcellulose solution and orally administered at a volume of 5 mL/kg, and the number of feces 2 hr later was counted. Only 0.5% methylcellulose was administered to a solvent administration group.

| SMILES | Tmax [1] [h] | MRT [1] [h] | clearance [1] [mL/min/kg] | number of feces 2 hr later (Male SD rats; 1 mg/kg orally) | number of feces 2 hr later (Male SD rats; 3 mg/kg orally) | number of feces 2 hr later (Male SD rats; 10 mg/kg orally) |
| --- | --- | --- | --- | --- | --- | --- |
| Cc1c(Cc2ccc(-c3cn(C)nn3)nc2)cc2c(=O)n([C@H]3CCOC[C@@H]3O)cnc2c1C [Example 2, 1,5-anhydro-2,3-dideoxy-3-(7,8-dimethyl-6-((6-(1-methyl-1H-1,2,3-triazol-4-yl)pyridin-3-yl)methyl)-4-oxoquinazolin-3(4H)-yl)-L-threo-pentitol] | 1 | 1 | 10.9 | – | – | – |
| CNC(=O)c1ccc(Cc2cc3c(=O)n([C@H]4CCOC[C@@H]4O)cnc3c(C)c2C)cc1F [Example 3, 1,5-anhydro-2,3-dideoxy-3-(6-(3-fluoro-4-(methylcarbamoyl)benzyl)-7,8-dimethyl-4-oxoquinazolin-3(4H)-yl)-L-threo-pentitol] | 1.7 | 1.9 | 10.2 | 7.4 ± 0.7 | 7.8 ± 1.4 | – |
| Cc1nn(C)cc1-c1ccc(Cc2cc3c(=O)n([C@H]4CCOC[C@@H]4O)cnc3c(C)c2C)cn1 [Example 5, 1,5-anhydro-2,3-dideoxy-3-(6-((6-(1,3-dimethyl-1H-pyrazol-4-yl)pyridin-3-yl)methyl)-7,8-dimethyl-4-oxoquinazolin-3(4H)-yl)-L-threo-pentitol] | 0.7 | 1.2 | 7.45 | – | – | – |
| COCCNC(=O)c1ccc(Cc2cc3c(=O)n([C@H]4CCOC[C@@H]4O)cnc3c(C)c2C)cc1F [Example 66, 1,5-anhydro-2,3-dideoxy-3-(6-(3-fluoro-4-((2-methoxyethyl)carbamoyl)benzyl)-7,8-dimethyl-4-oxoquinazolin-3(4H)-yl)-L-threo-pentitol] | 0.7 | 0.8 | 26.6 | 9.9 ± 1.0 | – | – |
| Cc1c(Cc2ccc(C(=O)NC[C@H]3CCCO3)c(F)c2)cc2c(=O)n([C@H]3CCOC[C@@H]3O)cnc2c1C [Example 81, 1,5-anhydro-2,3-dideoxy-3-(6-(3-fluoro-4-(((2R)-tetrahydrofuran-2-ylmethyl)carbamoyl)benzyl)-7,8-dimethyl-4-oxoquinazolin-3(4H)-yl)-L-threo-pentitol] | 0.5 | 0.5 | 72.2 | 6.9 ± 1.1 | 7.0 ± 0.8 | 11.5 ± 1.1 |

The next lines start with results.

| Tmax [1] [h] | MRT [1] [h] | clearance [1] [mL/min/kg] | SMILES | number of feces 2 hr later (Male SD rats; 1 mg/kg orally) | number of feces 2 hr later (Male SD rats; 3 mg/kg orally) | number of feces 2 hr later (Male SD rats; 10 mg/kg orally) |
| --- | --- | --- | --- | --- | --- | --- |
| 1.7 | 1.4 | 4.55 | Cc1c(Cc2ccc(-c3cnn(C)c3)nc2)cc2c(=O)n([C@H]3CCOC[C@@H]3O)cnc2c1C [Example 6, 1,5-anhydro-2,3-dideoxy-3-(7,8-dimethyl-6-((6-(1-methyl-1H-pyrazol-4-yl)pyridin-3-yl)methyl)-4-oxoquinazolin-3(4H)-yl)-L-threo-pentitol] | – | – | – |
| 1.7 | 2.5 | 4.57 | CNC(=O)c1ccc(Cc2cc3c(=O)n([C@H]4CCOC[C@@H]4O)nnc3c(Cl)c2C)cc1F [Example 19, 1,5-anhydro-3-(8-chloro-6-(3-fluoro-4-(methylcarbamoyl)benzyl)-7-methyl-4-oxo-1,2,3-benzotriazin-3(4H)-yl)-2,3-dideoxy-L-threo-pentitol] | – | – | – |
